From patent US9018383B2, “Acylamino-substituted cyclic carboxylic acid derivatives and their use as pharmaceuticals” (Sanofi, priority 2009, dated 2015)
pIC50: −log10 of the molar value.

These molecules were tested against human Edg-2 receptor (Homo sapiens, UniProt Q92633) (assay: Determination of Edg-2 receptor inhibition by FLIPR measurements (LPA-mediated calcium liberation)). Settings: CHO cells overexpressing human Edg-2 receptor, LPA 100 nM, fluo-4 calcium fluorescence; read-out: Inhibitory concentrations IC50 for inhibition of the Edg-2 receptor.
Assay type: cell-based
Experimental: A) Determination of Edg-2 Receptor Inhibition by Fluorescence Imaging Plate Reader (FLIPR) Measurements
The inhibition of the Edg-2 receptor (LPA1 receptor) by the compounds of the invention was quantified by the inhibitory effect on the LPA-mediated calcium liberation in a cell-based calcium fluorescence assay by use of Chinese hamster ovarian (CHO) cells in which the human Edg-2 receptor was stably overexpressed (Flp-In system, Invitrogen). […] Changes in intracellular calcium were determined by fluorescence measurement with the calcium-sensitive dye fluo-4 (Invitrogen) in a fluorescence imaging plate reader (FLIPR, […]).
CHO cells stably overexpressing the human Edg-2 receptor were seeded (40.000 per well) in black clear-bottomed poly-D-lysine-coated 96 well plates (Becton Dickinson, Biocoat cellware) approximately 18-24 h prior to the experiments. Cells were grown in an incubator at 37° C., 5% carbon dioxide and 95% humidity in cell culture media based on F-12 glutamax media (Gibco, #31765) supplemented with 1% (vol/vol) penicilline/streptomycine (PAN, #P06-07100), 10% (vol/vol) fetal calf serum (FCS, PAA, #A15-151) and hygromycin B (Invitrogen, #10687-010) 300 mg/l (final concentrations).
Prior to the FLIPR experiment, cells were loaded with fluo-4 acetoxymethyl ester (fluo-4 AM, Invitrogen, #F14202) for 60 min in an incubator at 37° C., 5% carbon dioxide and 95% humidity in dye-loading buffer consisting of Hanks' Balanced Salt Solution (HBSS, Invitrogen, #14065049) supplemented with fluo-4 AM at 2 μM (all data given for final concentration), Pluronic® F-127 0.05% (vol/vol) (Invitrogen, #P-3000 MP), HEPES 20 mM (Gibco, #15630), probenecid 2.5 mM (Sigma, #P-8761) and bovine serum albumin 0.05% (BSA, Sigma, #A-6003), adjusted to pH 7.5 with sodium hydroxide. During cell loading, fluo-4 AM is cleaved by intracellular esterase resulting in trapping of the dye fluo-4 within the cells. Loading was terminated by washing of the cells in a cell washer (Tecan Power washer) three times with the buffer specified afore but without fluo-4 AM and BSA. This latter buffer was also used as the buffer in the subsequent cell fluorescence measurements.
The dye-loaded and washed cells were pre-incubated for approximately 5 min with various concentrations of the test compound added as a solution in DMSO (0.3% vol/vol maximum final concentration of DMSO), or with DMSO in the respective concentration only (positive control). Subsequent addition of LPA (18:1, 1-oleoyl-sn-glycerol 3-phosphate; 100 nM final concentration) leads to liberation of intracellular calcium from internal stores resulting in a large transient increase of the fluo-4 fluorescence signal which was monitored over approximately 3 min. The percent inhibition caused by the test compound was determined from the maximum fluorescence response after LPA addition to cells pre-incubated with the compound as compared to the maximum fluorescence response after LPA addition to cells pre-incubated with DMSO only. All fluorescence values were corrected for the baseline fluorescence values obtained with cells which were pre-incubated with DMSO only and were not treated with LPA (baseline control). All measurements were performed in triplicate. From the percent inhibitions the inhibitory concentration IC50 was determined.

Chain of human Edg-2 receptor (Q92633 whole entry): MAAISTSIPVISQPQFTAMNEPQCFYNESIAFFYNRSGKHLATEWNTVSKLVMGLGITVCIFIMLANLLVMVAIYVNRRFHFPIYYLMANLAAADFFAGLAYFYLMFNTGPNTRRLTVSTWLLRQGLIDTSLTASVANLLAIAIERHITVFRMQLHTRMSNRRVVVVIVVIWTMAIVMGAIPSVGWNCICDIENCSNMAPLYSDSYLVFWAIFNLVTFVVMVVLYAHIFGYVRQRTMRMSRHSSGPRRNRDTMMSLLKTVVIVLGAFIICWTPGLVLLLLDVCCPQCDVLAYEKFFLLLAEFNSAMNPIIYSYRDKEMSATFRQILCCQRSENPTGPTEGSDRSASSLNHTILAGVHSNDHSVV

Row | Structure (SMILES) | pIC50
1 | COc1ccc(C(=O)NC2(C(=O)O)CCCCCC2)cc1-c1cccc(C(C)C)c1 [Example 105] | 6.00 to 7.00
2 | COc1ccc(C(=O)NC2(C(=O)O)CCCCCC2)cc1OCC(O)c1cccc(C)c1 (centres unmarked) [Example 73, 1-[3-(2-Hydroxy-2-m-tolyl-ethoxy)-4-methoxy-benzoylamino]-cycloheptanecarboxylic acid] | 4.52 to 6.00
3 | COc1ccc(C(=O)NC2(C(=O)O)CC3CCC(C3)C2)cc1OCCc1cccc(C)c1 (centres unmarked) [Example 31] | > 7.00
4 | COc1ccc(C(=O)NC2(C(=O)O)CCCCCC2)cc1OCC(C)c1ccccc1 (centres unmarked) [Example 9] | > 7.00
5 | COc1ccc(C(=O)NC2(C(=O)O)CCCCCC2)cc1OCCc1ccccc1C [Example 19] | 6.00 to 7.00
6 | COc1ncc(C(=O)N[C@]2(C(=O)O)CC[C@H](C)CC2)cc1OCCc1cccc(C)c1 [Example 79, cis-1-{[6-Methoxy-5-(2-m-tolyl-ethoxy)-pyridine-3-carbonyl]-amino}-4-methyl-cyclohexanecarboxylic acid] | > 7.00
7 | COc1ccc(C(=O)NC2(C(=O)O)CCCCC2C)cc1OCCc1cccc(C)c1 (centres unmarked) [Example 48] | 4.52 to 6.00
8 | CC[C@H]1CC[C@](NC(=O)c2ccc(OC)c(OCCc3cccc(CCO)c3)c2)(C(=O)O)CC1 [Example 111, cis-4-Ethyl-1-(3-{2-[3-(2-hydroxy-ethyl)-phenyl]-ethoxy}-4-methoxy-benzoylamino)-cyclohexanecarboxylic acid] | > 7.00
9 | COc1ccc(C(=O)NC2(C(=O)O)CCC(CO)CC2)cc1OCCc1cccc(C)c1 (centres unmarked) [Example 58, 4-Hydroxymethyl-1-[4-methoxy-3-(2-m-tolyl-ethoxy)-benzoylamino]-cyclohexanecarboxylic acid] | 4.52 to 6.00
10 | CC[C@H]1CC[C@](NC(=O)c2cnc(OC)c(-c3cccc(F)c3)c2)(C(=O)O)CC1 [Example 409] | > 7.00
11 | COc1ccc(C(=O)NC2(C(=O)O)CCCC(C)C2)cc1OCCc1cccc(C)c1 (centres unmarked) [Example 367] | 6.00 to 7.00
12 | COc1ncc(C(=O)NC2(C(=O)O)CCCCCC2)cc1OCCc1ccccc1 [Example 88, 1-{[5-(2-Phenyl-ethoxy)-6-methoxy-pyridine-3-carbonyl]-amino}-cycloheptanecarboxylic acid] | > 7.00
13 | CC[C@H]1CC[C@](NC(=O)c2cnc(OC)c(-c3ccc(F)cc3)c2)(C(=O)O)CC1 [Example 407] | > 7.00
14 | CC[C@H]1CC[C@](NC(=O)c2cnc(OCCO)c(-c3cc(F)cc(F)c3)c2)(C(=O)O)CC1 [Example 415] | > 7.00
15 | O=C(NC1(C(=O)O)CCCCCC1)c1ccc(OCCO)c(OCCc2cccc(Cl)c2)c1 [Example 121, 1-[3-[2-(3-Chloro-phenyl)-ethoxy]-4-(2-hydroxy-ethoxy)-benzoylamino]-cycloheptane-carboxylic acid] | 6.00 to 7.00
16 | CC[C@H]1CC[C@](NC(=O)c2cnc(OC)c(OCCc3cccc(C)c3)c2)(C(=O)O)CC1 [Example 396, cis-4-Ethyl-1-{[6-methoxy-5-(2-m-tolyl-ethoxy)-pyridine-3-carbonyl]-amino}-cyclohexanecarboxylic acid] | > 7.00
17 | COc1ccc(C(=O)NC2(C(=O)O)CCC3CC3CC2)cc1OCCc1cccc(C)c1 (centres unmarked) [Example 75] | > 7.00
18 | CC[C@H]1CC[C@](NC(=O)c2cnc(OCCO)c(-c3ccc(OC)c(Cl)c3)c2)(C(=O)O)CC1 [Example 417] | > 7.00
19 | COCCOc1ccc(C(=O)N[C@]2(C(=O)O)CC[C@@H](C)CC2)cc1OCCc1cccc(C)c1 [Example 117, trans-1-[4-(2-Methoxy-ethoxy)-3-(2-m-tolyl-ethoxy)-benzoylamino]-4-methyl-cyclohexane-carboxylic acid] | 4.52 to 6.00
20 | CC[C@H]1CC[C@](NC(=O)c2ccc(OC)c(OCCc3cccc(OC(F)(F)F)c3)c2)(C(=O)O)CC1 [Example 403, cis-4-Ethyl-1-{4-methoxy-3-[2-(3-trifluoromethoxy-phenyl)-ethoxy]-benzoylamino}-cyclohexanecarboxylic acid] | > 7.00
21 | Cc1cccc(CCOc2cc(C(=O)NC3(C(=O)O)CCCCCC3)ccc2Cl)c1 [Example 64, 1-[4-Chloro-3-(2-m-tolyl-ethoxy)-benzoylamino]-cycloheptanecarboxylic acid] | 6.00 to 7.00

Row | Structure (SMILES) | pIC50
22 | COc1ccc(C(=O)NC2(C(=O)O)CCCCCC2)cc1OCCc1cc(Cl)ccc1Cl [Example 17] | > 7.00
23 | COc1ncc(C(=O)N[C@]2(C(=O)O)CC[C@@H](C)CC2)cc1-c1cccc(C(F)(F)F)c1 [Example 318] | > 7.00
24 | COc1ccc(C(=O)N[C@]2(C(=O)O)CC[C@@H](C)CC2)cc1OCCc1cccc(C2COC2)c1 [Example 128, trans-1-{4-Methoxy-3-[2-(3-oxetan-3-yl-phenyl)-ethoxy]-benzoylamino}-4-methyl-cyclohexanecarboxylic acid] | 6.00 to 7.00
25 | CC[C@H]1CC[C@@](NC(=O)c2ccc(CO)c(-c3cccc(C(F)(F)F)c3)c2)(C(=O)O)CC1 [Example 431, trans-4-Ethyl-1-[(6-hydroxymethyl-3′-trifluoromethyl-biphenyl-3-carbonyl)-amino]-cyclohexanecarboxylic acid] | 6.00 to 7.00
26 | COc1ccc(C(=O)N[C@]2(C(=O)O)CC[C@H](C)CC2)cc1OCCc1cccc(CCO)c1 [Example 109, cis-1-(3-{2-[3-(2-Hydroxy-ethyl)-phenyl]-ethoxy}-4-methoxy-benzoylamino)-4-methyl-cyclohexanecarboxylic acid] | > 7.00
27 | COc1ccc(C(=O)N[C@]2(C(=O)O)CC[C@H](C)CC2)cc1OCCc1cc(OC(F)(F)F)ccc1F [Example 405, cis-1-{3-[2-(2-Fluoro-5-trifluoromethoxy-phenyl)-ethoxy]-4-methoxy-benzoylamino}-4-methyl-cyclohexanecarboxylic acid] | > 7.00
28 | COc1ccc(C(=O)NC2(C(=O)O)CCC(C)C2)cc1OCCc1cccc(C)c1 (centres unmarked) [Example 33] | > 7.00
29 | COc1ncc(C(=O)NC2(C(=O)O)CCCCCC2)cc1-c1cccc(Cl)c1Cl [Example 97] | > 7.00
30 | CC[C@H]1CC[C@](NC(=O)c2cnc(OC)c(-c3ccc(OC)c(F)c3)c2)(C(=O)O)CC1 [Example 411] | > 7.00
31 | COc1ccc(C(=O)N[C@]2(C(=O)O)CC[C@H](C)CC2)cc1OCCc1cc(Cl)ccc1F [Example 404, cis-1-{3-[2-(5-Chloro-2-fluoro-phenyl)-ethoxy]-4-methoxy-benzoylamino}-4-methyl-cyclohexanecarboxylic acid] | > 7.00
32 | COc1ccc(C(=O)NC2(C(=O)O)CCCCCC2)cc1OCCc1c(F)cccc1Cl [Example 16] | > 7.00
33 | COc1ccc(C(=O)NC2(C(=O)O)CCC(C(C)(C)C)CC2)cc1OCCc1cccc(C)c1 (centres unmarked) [Example 371] | 6.00 to 7.00
34 | COc1ccc(C(=O)NC2(C(=O)O)CCCCCC2)cc1OCC1(c2ccccc2)COC1 [Example 22] | > 7.00
35 | CC[C@H]1CC[C@](NC(=O)c2cnc(OC)c(OCCc3cccc(Cl)c3)c2)(C(=O)O)CC1 [Example 357, cis-1-({5-[2-(3-Chloro-phenyl)-ethoxy]-6-methoxy-pyridine-3-carbonyl}-amino)-4-ethyl-cyclohexanecarboxylic acid] | > 7.00
36 | CC[C@H]1CC[C@](NC(=O)c2ccc(OC)c(OCCc3cccc(Cl)c3)c2)(C(=O)O)CC1 [Example 208] | > 7.00
37 | COc1ccc(C(=O)N[C@]2(C(=O)O)CC[C@H](C)CC2)cc1-c1cccc(OC(F)(F)F)c1 [Example 329] | > 7.00
38 | CC[C@H]1CC[C@](NC(=O)c2cnc(OC)c(-c3cc(Cl)cc(C(F)(F)F)c3)c2)(C(=O)O)CC1 [Example 302] | > 7.00
39 | CC(=O)c1ccc(C(=O)NC2(C(=O)O)CCCCCC2)cc1OCCc1cccc(C)c1 [Example 60, 1-[4-Acetyl-3-(2-m-tolyl-ethoxy)-benzoylamino]-cycloheptanecarboxylic acid] | 6.00 to 7.00
40 | COc1ccc(C(=O)NC2(C(=O)O)CCCCCC2)cc1OCCc1cccc(Cl)c1F [Example 21] | 6.00 to 7.00
41 | CC[C@H]1CC[C@](NC(=O)c2cnc(OC)c(-c3cccc(C(F)(F)F)c3F)c2)(C(=O)O)CC1 [Example 304] | > 7.00
